Reference: PubChem BioAssay (NCI)
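These data come from cells grown in 96-well plates and exposed to compound for 48 hours at five concentrations. GI50 is the concentration that inhibits growth by half. TGI: total growth inhibition.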 Where a SMILES comes first, the peptide text is derived from it. [ ]: non-standard residue; d: D form. The star is where a group is joined. ξ: configuration not given here. ξF = NC(Cc1ccccc1)C(=O)O; Cbz = O=C(OCc1ccccc1)*; Aib = CC(C)(N)C(=O)O

How the values were obtained:
Experiment in all cases: DTP human tumour cell line panel, 48 h
[1] = test system: SF-295 CNS
[2] = test system: CCRF-CEM leukemia
[3] = test system: SK-MEL-5 melanoma
[4] = test system: OVCAR-5 ovarian
[5] = test system: NCI-H522 lung
[6] = test system: NCI/ADR-RES ovarian
[7] = test system: SK-OV-3 ovarian
[8] = test system: RXF 393 renal
[9] = test system: SN12C renal
[10] = test system: SK-MEL-2 melanoma

| Structure (SMILES) | TGI [1] [µM] | TGI [2] [µM] | TGI [3] [µM] | TGI [4] [µM] | TGI [5] [µM] | TGI [6] [µM] | TGI [7] [µM] | TGI [8] [µM] | TGI [9] [µM] | TGI [10] [µM] | GI50 [8] [nM] | GI50 [2] [µM] | GI50 [9] [µM] | GI50 [10] [nM] | GI50 [4] [µM] | GI50 [5] [µM] | GI50 [7] [µM] | GI50 [3] [nM] | GI50 [6] [nM] | GI50 [1] [nM] |
| --- | --- | --- | --- | --- | --- | --- | --- | --- | --- | --- | --- | --- | --- | --- | --- | --- | --- | --- | --- | --- |
| COC(=O)C(C)(C)NC(=O)C(Cc1ccccc1)NC(=O)C(C)(C)NC(=O)OCc1ccccc1 (centres undefined) (Cbz-[Aib]-[ξF]-[Aib]-OMe) | > 100 | > 100 | > 100 | > 100 | > 100 | > 100 | > 100 |  |  |  |  |  |  |  |  |  |  |  |  |  |
| Nc1c(-c2ccccc2[N+](=O)[O-])nc2ccccn12 | > 100 | > 100 | > 100 | > 100 |  |  | > 100 | > 100 | > 100 | > 100 |  |  |  |  |  |  |  |  |  |  |
| C(=N\OCCc1ccccc1)/c1cccnc1 | > 100 | > 100 | > 100 | > 100 | > 100 | > 100 | > 100 | > 100 | > 100 | > 100 |  |  |  |  |  |  |  |  |  |  |
| Clc1ccc(-c2ccc(-c3nnc(COc4ccc(OCc5nnc(-c6ccc(-c7ccc(Cl)cc7Cl)o6)o5)c(Cl)c4)o3)o2)c(Cl)c1 | > 100 | 67.1 | > 100 | > 100 | > 100 | > 100 |  | 73.2 | > 100 | > 100 |  |  |  |  |  |  |  |  |  |  |
| CCCCOCc1cc(CN2CCN(C)CC2)c(O)c2ncccc12 | 33.5 | 30.2 | 26.8 | 95.8 | > 100 |  | > 100 | > 100 | > 100 | > 100 |  |  |  |  |  |  |  |  |  |  |
| COc1cc(Nc2nnc3n2S(=O)(=O)c2cc(C)c(Cl)cc2S3)cc(OC)c1 | 68.7 | > 100 | 68.7 | > 100 | 8.44 | > 100 | 31.4 | 49.3 | > 100 |  |  |  |  |  |  |  |  |  |  |  |
| c1cncc(O[Si](Oc2cccnc2)(Oc2cccnc2)Oc2cccnc2)c1 | > 100 |  | > 100 | > 100 |  |  | > 100 | > 100 | > 100 | > 100 |  |  |  |  |  |  |  |  |  |  |
| NCCSCc1ccccc1Cl | > 100 | 78.8 | > 100 | > 100 | > 100 | > 100 |  | > 100 | > 100 | 87.5 |  |  |  |  |  |  |  |  |  |  |
| Cc1ccc(N2CCN(CCC(=O)O)CC2)cc1 | > 100 | > 100 | > 100 | > 100 | > 100 | > 100 | > 100 | > 100 | > 100 | > 100 |  |  |  |  |  |  |  |  |  |  |
| C[CH2][Ge]([CH2]C)([CH2]C)[O]C(=O)CCC(=O)[O][Ge]([CH2]C)([CH2]C)[CH2]C |  | > 100 |  | > 100 | > 100 |  | > 100 | > 100 | > 100 | > 100 | > 100000 | 23.7 | > 100 | > 100000 | > 100 | 45.2 | > 100 |  |  |  |
| N=C(N)c1ccc(-c2ccc(-c3cccs3)s2)s1 |  |  | 2.34 | 2.52 | 3.02 | 3.62 |  | 0.924 | 3.3 |  | 290 |  | 1.58 |  | 1.21 | 1.49 |  | 1020 | 1790 |  |
| COc1cc(-c2n/c(=C\c3c(O)[nH]c4cc(Cl)ccc34)cc3c2=Nc2ccccc2-3)cc(OC)c1OC | 5.19 | > 100 | 23 | > 100 | 18.4 | 20.1 | 11.3 | 7.34 | 26.1 | 12.3 | 2370 | 3.88 | 4.15 | 2510 | 18.3 | 3.85 | 3.8 | 3980 | 2840 | 2170 |
| COc1ccc(/C=C2\Sc3nnc(CNc4ccc(Cl)cc4)n3N=C2c2cc(F)c(Cl)cc2Cl)cc1OC | > 100 | > 100 | > 100 | > 100 | > 100 | 52.3 | > 100 | 74.2 |  | > 100 |  |  |  |  |  |  |  |  |  |  |
| CCOc1ccc(N=NS(=O)(=O)O)cc1 | > 100 | > 100 | > 100 | > 100 | > 100 | > 100 | > 100 | > 100 | > 100 | > 100 |  |  |  |  |  |  |  |  |  |  |
| CC(C)(CCCCC(C)(C)C1NC(=O)N1)C1NC(=O)N1 | > 10 | > 10 | > 10 | > 10 | > 10 | > 10 | > 10 | > 10 | > 10 | > 10 |  |  |  |  |  |  |  |  |  |  |
| CC(C)CC(NC(=O)C(Cc1ccccc1)NC(=O)C(Cc1c[nH]c2ccccc12)NC(=O)CNC(=O)C(N)Cc1ccc(O)cc1)C(=O)O (centres undefined) (H-YGWFL-OH; configuration not given here) | 88.6 | > 100 | > 100 | > 100 | 95.6 | > 100 | > 100 | > 100 | > 100 | > 100 |  |  |  |  |  |  |  |  |  |  |
| CC(=O)ON1C(=O)c2cccc3cccc(c23)C1=O | > 100 | > 100 | 28.2 | > 100 | 43.6 | > 100 | > 100 | 25.5 |  | 67.6 |  |  |  |  |  |  |  |  |  |  |
| O=c1c2cc(I)ccc2nc(SCc2n[nH]c(=S)o2)n1Cc1ccccc1 | 40 | 43.8 | 26.2 | 52.4 | 27.8 | 54.2 | 62.3 | 10.9 | 27.6 | 30.4 |  |  |  |  |  |  |  |  |  |  |
| COC1=CC(=O)c2c(c(COP(=O)(N(C)CCBr)N(C)CCBr)cn2C)C1=O | 0.366 | 1.78 | 0.328 | 0.564 | 0.374 | 1.71 | 1.88 | 0.289 | 0.371 | 0.315 |  |  |  |  |  |  |  |  |  |  |
| CC(C)(C)c1cc(OCc2nnc3sc(=S)[nH]n23)c(Cl)cc1OCc1nnc2sc(=S)[nH]n12 | > 100 | 37.3 | 29.5 | > 100 | 37.8 | > 100 | > 100 | 69.1 | > 100 | 58.9 |  |  |  |  |  |  |  |  |  |  |
| Cc1ccc(C(O)(c2ccc(C)cc2)c2ccccn2)cc1 | > 100 | > 100 | > 100 | > 100 |  |  | > 100 |  | > 100 | > 100 |  |  |  |  |  |  |  |  |  |  |
